Values joined by “and” are separate entries in the source; they are usually repeats but may differ in a detail not shown here. Identical values can stand only once. Like-named read-outs stand apart in the source and are kept apart here.
What was measured:
human TRPV1 [1] = biological target: T1, human TRPV1 (Homo sapiens, UniProt Q8NER1); test: Pre-incubation with PUFAs or capsazepine, then capsaicin (10 nM) response in HEK-293 TRPV1 cells; type: cell-based; conditions: for Effect of pre-treatment on the capsaicin response: 10 µM, 5 min exposure, then capsaicin 10 nM; for Post-capsaicin: response to subsequent capsaicin addition, individual experiments: capsaicin 10 nM after 5 min drug 10 µM; for Post-capsaicin: response to subsequent capsaicin addition, individual experiments / Pre-capsaicin: response to first drug, individual experiments: TRPV1 cells; for Pre-capsaicin: response to first drug, individual experiments: drug 10 µM for 5 min
T1 construct: Life Technologies (cells); host or cells: Flp-In T-REx HEK-293
T1 sequence (Q8NER1 whole entry): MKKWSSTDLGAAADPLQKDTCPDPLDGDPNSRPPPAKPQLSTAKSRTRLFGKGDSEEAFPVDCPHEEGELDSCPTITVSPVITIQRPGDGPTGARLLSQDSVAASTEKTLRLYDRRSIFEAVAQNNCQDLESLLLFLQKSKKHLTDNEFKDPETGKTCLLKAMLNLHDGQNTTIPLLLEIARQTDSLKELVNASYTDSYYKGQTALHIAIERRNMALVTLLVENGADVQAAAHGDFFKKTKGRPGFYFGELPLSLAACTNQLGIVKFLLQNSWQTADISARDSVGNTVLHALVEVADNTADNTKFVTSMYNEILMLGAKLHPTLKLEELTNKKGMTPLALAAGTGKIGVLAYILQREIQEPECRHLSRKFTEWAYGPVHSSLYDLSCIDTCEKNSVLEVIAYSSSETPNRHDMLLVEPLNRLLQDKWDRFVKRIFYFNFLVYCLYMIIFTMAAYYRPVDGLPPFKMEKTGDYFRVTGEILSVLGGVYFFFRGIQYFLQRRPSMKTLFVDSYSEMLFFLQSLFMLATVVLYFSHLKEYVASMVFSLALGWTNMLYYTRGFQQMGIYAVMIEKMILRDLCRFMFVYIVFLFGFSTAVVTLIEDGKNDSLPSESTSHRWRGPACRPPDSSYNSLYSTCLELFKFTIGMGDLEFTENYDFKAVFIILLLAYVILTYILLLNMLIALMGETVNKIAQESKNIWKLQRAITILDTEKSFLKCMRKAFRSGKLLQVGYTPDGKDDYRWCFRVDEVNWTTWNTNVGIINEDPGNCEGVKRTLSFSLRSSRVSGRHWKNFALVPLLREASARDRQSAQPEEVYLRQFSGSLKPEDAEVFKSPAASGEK
Method: Intracellular calcium [Ca]i levels were assessed using the calcium 5 kit from Molecular Devices (# R8186, Sunnyvale, CA, USA) on a FlexStation 3 Microplate Reader (Molecular Devices, Sunnyvale, CA, USA). […] Probenecid (cat # 50027; Biotium) which helps to prevent expulsion of calcium indicator from the cells was added to a final concentration of 1.25 mM. 90 µL of the dye were loaded into each well of the plate and incubated for 1 h before reading in the FlexStation 3 at 37 °C. Fluorescence was recorded every 2 s (λ excitation = 485 nm, λ emission = 525 nm) for 5 min. After 1 min of baseline recording, 20 µL of the drug, dissolved in HBSS with 1% dimethyl sulfoxide (DMSO) (cat # D2650; Sigma-Aldrich, Melbourne, Australia) was added (final DMSO concentration was 0.1% in well). […]

human TRPV1 [2] = biological target: T1, human TRPV1; test: PMA (phorbol ester) potentiation of TRPV1 responses in HEK-293 TRPV1 cells; type: cell-based; set-up: key to Drugs alone, individual experiments: change in [Ca]i as % of pre-drug baseline
Method: Intracellular calcium [Ca]i levels were assessed using the calcium 5 kit from Molecular Devices (# R8186, Sunnyvale, CA, USA) on a FlexStation 3 Microplate Reader (Molecular Devices, Sunnyvale, CA, USA). […] Probenecid (cat # 50027; Biotium) which helps to prevent expulsion of calcium indicator from the cells was added to a final concentration of 1.25 mM. 90 µL of the dye were loaded into each well of the plate and incubated for 1 h before reading in the FlexStation 3 at 37 °C. Fluorescence was recorded every 2 s (λ excitation = 485 nm, λ emission = 525 nm) for 5 min. After 1 min of baseline recording, 20 µL of the drug, dissolved in HBSS with 1% dimethyl sulfoxide (DMSO) (cat # D2650; Sigma-Aldrich, Melbourne, Australia) was added (final DMSO concentration was 0.1% in well).
We initially determined the effect of PMA, another phorbol ester that is a protein kinase C activator ([Jiang & Fleet, 2012]) on HEK-293 TRPV1 expressing cells.
(A) Response of HEK-293 TRPV1 expressing cells for PMA at various concentration. […] Drugs were added for the duration of the bar; (D) The effects of PUFAs after potentiation of TRPV1 by PMA. […] Changes in [Ca]i are expressed as percentage of the pre-drug baseline, with the response to PMA alone at 5 min subtracted. The black circles represent the response of PUFAs without PMA pretreatment while the pink circles represent the response of PUFAs after PMA potentiation.

human TRPV1 [3] = biological target: T1, human TRPV1; test: Calcium 5 dye [Ca]i assay in HEK-293 Flp-In T-REx cells expressing TRPV1 (agonist response); type: cell-based; conditions: for Elevation of [Ca]i in HEK-293 TRPV1 cells compared with HEK-293 EV cells / Change of Ca5 fluorescence, Mean ± SEM, TRPV1 (10 µM): 10 µM; for Change of Ca5 fluorescence, Mean ± SEM, TRPV1 (10 µM): HEK-293 TRPV1 cells, percentage of predrug baseline; for Change in Ca5 fluorescence, individual experiments (CRC raw data): TRPV1 cells
In short: (§1)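 Tetracycline-induced (1 µg ml^−1, 4 h) HEK-293 T-REx cells loaded with Calcium 5 dye plus 1.25 mM probenecid for 1 h; agonist added after 1 min baseline (0.1% DMSO final), fluorescence (485/525 nm) read every 2 s for 5 min at 37 °C. Response as % change from baseline, solvent-subtracted; EC50/Emax from three-parameter logistic fit, given as pEC50.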

human TRPA1 = biological target: T2, human TRPA1 (Homo sapiens, UniProt O75762); test: Calcium 5 dye [Ca]i assay in HEK-293 Flp-In T-REx cells expressing TRPA1 (agonist response); type: cell-based; conditions: for Elevation of [Ca]i in HEK-293 TRPA1 cells compared with HEK-293 EV cells: 10 µM (cinnamaldehyde 300 µM); for Change of Ca5 fluorescence, Mean ± SEM, TRPA1 (10 µM): HEK-293 TRPA1 cells, percentage of predrug baseline; for TRPA1 activation at the highest concentration tested: 30 µM; for Emax at 30 µM: HEK293, read-out: Emax ± SEM % TRPA1 (30 µM); for [Ca]i response (change in fluorescence), individual replicates: sheet Figure 4
T2 construct: Life Technologies (cells); host or cells: Flp-In T-REx HEK-293
T2 sequence (O75762 whole entry): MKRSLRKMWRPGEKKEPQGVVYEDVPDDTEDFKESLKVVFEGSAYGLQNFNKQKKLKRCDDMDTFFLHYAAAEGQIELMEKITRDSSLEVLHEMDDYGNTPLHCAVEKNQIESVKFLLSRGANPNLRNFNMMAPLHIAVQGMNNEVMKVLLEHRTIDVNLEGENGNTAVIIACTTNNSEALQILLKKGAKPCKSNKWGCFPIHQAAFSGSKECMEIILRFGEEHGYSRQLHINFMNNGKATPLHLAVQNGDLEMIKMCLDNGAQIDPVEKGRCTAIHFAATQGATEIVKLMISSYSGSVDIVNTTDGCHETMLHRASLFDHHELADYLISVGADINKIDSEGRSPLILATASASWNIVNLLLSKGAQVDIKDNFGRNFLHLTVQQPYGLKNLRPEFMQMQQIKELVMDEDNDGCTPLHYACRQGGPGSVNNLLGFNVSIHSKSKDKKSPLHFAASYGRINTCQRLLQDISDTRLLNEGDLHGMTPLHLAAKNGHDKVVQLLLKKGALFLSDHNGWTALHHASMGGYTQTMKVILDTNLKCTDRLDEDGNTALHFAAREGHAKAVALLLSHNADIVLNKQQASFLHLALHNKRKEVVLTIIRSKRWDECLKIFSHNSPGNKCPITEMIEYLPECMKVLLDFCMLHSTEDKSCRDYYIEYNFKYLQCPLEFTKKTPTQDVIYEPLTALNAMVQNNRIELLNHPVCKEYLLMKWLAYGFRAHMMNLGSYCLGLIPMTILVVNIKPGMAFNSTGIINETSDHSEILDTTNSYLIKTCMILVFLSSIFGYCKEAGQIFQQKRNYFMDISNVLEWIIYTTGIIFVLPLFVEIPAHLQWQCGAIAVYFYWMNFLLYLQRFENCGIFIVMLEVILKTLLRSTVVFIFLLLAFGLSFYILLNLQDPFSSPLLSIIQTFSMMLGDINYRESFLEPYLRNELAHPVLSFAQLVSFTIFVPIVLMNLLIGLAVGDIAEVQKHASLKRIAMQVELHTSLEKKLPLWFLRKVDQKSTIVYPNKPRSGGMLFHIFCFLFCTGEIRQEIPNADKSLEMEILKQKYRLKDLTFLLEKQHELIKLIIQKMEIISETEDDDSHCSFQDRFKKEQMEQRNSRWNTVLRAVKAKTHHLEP
In short: as §1

HEK-293 EV cells = test: Calcium 5 dye [Ca]i assay in HEK-293 empty vector (EV) cells; type: cell-based, human; conditions: 10 µM; HEK-293 EV cells; percentage of predrug baseline
In short: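 Tetracycline at 1 µg ml^−1 was added 4 h before testing; cells were loaded with Calcium 5 dye for 1 h and read at 37 °C, with drug added after 1 min baseline (final 0.1% DMSO). The response was the % change from the 60 s baseline after solvent subtraction, and EC50/Emax came from a three-parameter logistic fit, reported as pEC50.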

Question: What does the source list for `CC/C=C\C/C=C\C/C=C\C/C=C\C/C=C\CCCC(=O)O` [EPA, eicosapentaenoic acid]?
Answer: Effect of pre-treatment on the capsaicin response (human TRPV1 [1]): did not affect; Post-capsaicin: response to subsequent capsaicin addition, individual experiments (human TRPV1 [1]): 203.333 and 227.843 and 146.783 and 264.915 and 237.782 and 308.835; Pre-capsaicin: response to first drug, individual experiments (human TRPV1 [1]): 16.1107 and 14.1511 and 10.793 and 4.456 and 14.6833 and 13.0981; TRPV1 response after exposure to PMA (human TRPV1 [2]; PMA 100 nM, 5 min pretreatment): only observed when a phorbol ester was present; Drugs post-PMA, individual experiments (human TRPV1 [2]; PUFA 10 µM after PMA 100 nM for 5 min, response to PMA alone subtracted): 49.2015 and 39.5321 and 37.0404 and 36.9714 and 31.5302 and 32.9212; Drugs alone, individual experiments (human TRPV1 [2]; PUFA 10 µM without PMA pretreatment, TRPV1 cells): 7.525 and 11.4184 and 9.766 and 10.5311 and 6.999 and 3.475 and 2.716 and 6.787 and 18.8884; Elevation of [Ca]i in HEK-293 TRPV1 cells compared with HEK-293 EV cells (human TRPV1 [3]): did not produce a notable change; Change of Ca5 fluorescence, Mean ± SEM, TRPV1 (10 µM) (human TRPV1 [3]): 16 ± 5%; Emax at 30 µM (human TRPV1 [3]; HEK293, read-out: Emax ± SEM % TRPV1 (30 µM)): 34 ± 5%; Change in Ca5 fluorescence, individual experiments (CRC raw data) (human TRPV1 [3]; log concentration -4.52288 (M)): 41.79 and 35.9904 and 24.921 and 28.9142 and 55.0634 and 19.9806; Change in Ca5 fluorescence, individual experiments (CRC raw data) (human TRPV1 [3]; log concentration -5 (M)): 41.213 and 9.61 and 11.6653 and 7.673 and 15.0259 and 7.993; Change in Ca5 fluorescence, individual experiments (CRC raw data) (human TRPV1 [3]; log concentration -5.52288 (M)): 10.434 and 4.673 and 8.042 and 0.3072; Change in Ca5 fluorescence, individual experiments (CRC raw data) (human TRPV1 [3]; log concentration -6 (M)): 6.783 and 4.449 and 9.084 and 5.542 and 3.583 and -0.1759; Change in Ca5 fluorescence, individual experiments (CRC raw data) (human TRPV1 [3]; log concentration -6.52288 (M)): 4.775 and 5.179 and 8.63 and 0.2635; Change in Ca5 fluorescence, individual experiments (CRC raw data) (human TRPV1 [3]; log concentration -7 (M)): 4.257 and 3.906 and 5.164 and 0.2974; Elevation of [Ca]i in HEK-293 TRPA1 cells compared with HEK-293 EV cells (human TRPA1): did not produce a change; Change of Ca5 fluorescence, Mean ± SEM, TRPA1 (10 µM) (human TRPA1): 58 ± 42%; TRPA1 activation at the highest concentration tested (human TRPA1): activated TRPA1; Emax at 30 µM (human TRPA1; highest tested concentration (30 µM) or derived from concentration-response curves (cinnamaldehyde)): 232 ± 67%; [Ca]i response (change in fluorescence), individual replicates (human TRPA1; concentration -4.52288 (log)): 377.608 and 117.826 and 193.269 and 60.6586 and 155.376 and 486.394; [Ca]i response (change in fluorescence), individual replicates (human TRPA1; concentration -5 (log)): 17.4998 and 14.5924 and 9.889 and 12.76 and 22.7093 and 269.088; [Ca]i response (change in fluorescence), individual replicates (human TRPA1; concentration -5.52288 (log)): 2.522 and 3.13 and 3.703 and 4.731; [Ca]i response (change in fluorescence), individual replicates (human TRPA1; concentration -6 (log)): 1.85 and 3.994 and 3.577 and 9.657 and 3.961 and 6.207; [Ca]i response (change in fluorescence), individual replicates (human TRPA1; concentration -6.52288 (log)): 1.392 and 2.613 and 2.728 and 11.1533; [Ca]i response (change in fluorescence), individual replicates (human TRPA1; concentration -7 (log)): 0.08029 and 3.966 and 3.106 and 5.407; Change of Ca5 fluorescence, Mean ± SEM, EV (10 µM) (HEK-293 EV cells): 14 ± 5%

Question: What does the source list for `CCCCC/C=C\C/C=C\C/C=C\CCCCC(=O)O` [γ-LA, γ-linolenic acid]?
Answer: Effect of pre-treatment on the capsaicin response (human TRPV1 [1]): did not affect; Post-capsaicin: response to subsequent capsaicin addition, individual experiments (human TRPV1 [1]; listed as GLA): 270.139 and 251.245 and 119.532 and 316.43 and 265.849 and 338.308; Pre-capsaicin: response to first drug, individual experiments (human TRPV1 [1]; listed as GLA): 11.5745 and 14.3439 and 14.381 and 3.4398 and 10.3554 and 15.8417; Elevation of [Ca]i in HEK-293 TRPV1 cells compared with HEK-293 EV cells (human TRPV1 [3]): did not produce a notable change; Change of Ca5 fluorescence, Mean ± SEM, TRPV1 (10 µM) (human TRPV1 [3]): 10 ± 1%; Change in Ca5 fluorescence, individual experiments (CRC raw data) (human TRPV1 [3]; log concentration -4.52288 (M), listed as GLA): 27.0827 and 92.1911 and 21.8805 and 27.2504 and 40.8812 and 31.4387; Change in Ca5 fluorescence, individual experiments (CRC raw data) (human TRPV1 [3]; log concentration -5 (M), listed as GLA): 15.417 and 9.771 and 8.536 and 10.7081 and 5.47 and 8.301; Change in Ca5 fluorescence, individual experiments (CRC raw data) (human TRPV1 [3]; log concentration -5.52288 (M), listed as GLA): 2.0403 and 1.257 and 4.6526 and 4.706 and 2.248 and 2.361; Change in Ca5 fluorescence, individual experiments (CRC raw data) (human TRPV1 [3]; log concentration -6 (M), listed as GLA): 3.899 and 2.392 and 3.26 and 4.994 and 2.614 and 2.892; Change in Ca5 fluorescence, individual experiments (CRC raw data) (human TRPV1 [3]; log concentration -6.52288 (M), listed as GLA): -0.6308 and 4.773 and 3.415 and 10.3597 and 1.966 and 2.796; Change in Ca5 fluorescence, individual experiments (CRC raw data) (human TRPV1 [3]; log concentration -7 (M), listed as GLA): 0.359 and 3.081 and 7.321 and 1.04 and 2.553; Elevation of [Ca]i in HEK-293 TRPA1 cells compared with HEK-293 EV cells (human TRPA1): did not produce a change; Change of Ca5 fluorescence, Mean ± SEM, TRPA1 (10 µM) (human TRPA1): 112 ± 61%; TRPA1 activation at the highest concentration tested (human TRPA1): activated TRPA1; Emax at 30 µM (human TRPA1): 255 ± 73%; [Ca]i response (change in fluorescence), individual replicates (human TRPA1; concentration -4.52288 (log), listed as GLA): 481.429 and 335.153 and 71.3202 and 67.3187 and 162.48 and 414.065; [Ca]i response (change in fluorescence), individual replicates (human TRPA1; concentration -5 (log), listed as GLA): 268.343 and 23.3711 and 10.7965 and 8.59 and 23.2369 and 338.225; [Ca]i response (change in fluorescence), individual replicates (human TRPA1; concentration -5.52288 (log), listed as GLA): 2.578 and 5.507 and 0.9073 and 7.069 and 268.915; [Ca]i response (change in fluorescence), individual replicates (human TRPA1; concentration -6 (log), listed as GLA): 0.8222 and 0.07304 and 2.068 and 3.637 and 4.16 and 7.0167; [Ca]i response (change in fluorescence), individual replicates (human TRPA1; concentration -6.52288 (log), listed as GLA): 0.1101 and 1.014 and 7.308 and 0.3513 and 4.285 and 9.421; [Ca]i response (change in fluorescence), individual replicates (human TRPA1; concentration -7 (log), listed as GLA): 0.1516 and -0.4942 and 5.21 and 2.462 and 4.3545 and 5.724; Change of Ca5 fluorescence, Mean ± SEM, EV (10 µM) (HEK-293 EV cells): 9 ± 2%

Reference: paper PMC11949107, “Polyunsaturated fatty acids and their endocannabinoid-related metabolites activity at human TRPV1 and TRPA1 ion channels expressed in HEK-293 cells” (PeerJ, 2025)
